molecular target: T1, human V1a receptor (Homo sapiens, UniProt P37288); test: V1a activity: human V1a receptor binding (3H-Vasopressin SPA, HEK293 membranes); conditions: membranes of HEK293 cells transiently transfected with human V1a receptor, Ki by Cheng-Prussoff equation, read-out: pKi hV1a (converted)
T1 construct: expressed in transfected cells; host or cells: HEK293 cells, transiently transfected; membrane preparation
Method: The human V1a receptor was cloned by RT-PCR from total human liver RNA. The coding sequence was subcloned in an expression vector after sequencing to confirm the identity of the amplified sequence. […] Cell membranes were prepared from HEK293 cells transiently transfected with the expression vector and grown in 20 liter fermenters with the following protocol.
50 g of cells were resuspended in 30 ml freshly prepared ice cold Lysis buffer (50 mM HEPES, 1 mM EDTA, 10 mM MgCl2 adjusted to pH=7.4+complete cocktail of protease inhibitor (Roche Diagnostics)); homogenized with Polytron for 1 min; and sonicated on ice for 2×2 minutes at 80% intensity (Vibracell sonicator). The preparation was centrifuged 20 min at 500 g at 4° C., the pellet was discarded and the supernatant centrifuged 1 hour at 43′000 g at 4° C. (19′000 rpm). The pellet was resuspended in 12.5 ml Lysis buffer+12.5 ml Sucrose 20% and homogenized using a Polytron for 1-2 min. The protein concentration was determined by the Bradford method, and aliquots were stored at −80° C. until use. For binding studies 60 mg Yttrium silicate SPA beads (Amersham) were mixed with an aliquot of membrane in binding buffer (50 mM Tris, 120 mM NaCl, 5 mM KCl, 2 mM CaCl2, 10 mM MgCl2) for 15 minutes with mixing. 50 ul of bead/membrane mixture was then added to each well of a 96 well plate, followed by 50 ul of 4 nM 3H-Vasopressin (American Radiolabeled Chemicals). For total binding measurement 100 ul of binding buffer were added to the respective wells, for non-specific binding 100 ul of 8.4 mM cold vasopressin and for compound testing 100 ul of a serial dilution of each compound in 2% DMSO. The plate was incubated 1 h at room temperature, centrifuged 1 min at 1000 g and counted on a Packard Top-Count. Non-specific binding counts were subtracted from each well and data was normalized to the maximum specific binding set at 100%. To calculate an IC 50 the curve was fitted using a non-linear regression model (XLfit), and the Ki was calculated using the Cheng-Prussoff equation.

T1 sequence (P37288 whole entry): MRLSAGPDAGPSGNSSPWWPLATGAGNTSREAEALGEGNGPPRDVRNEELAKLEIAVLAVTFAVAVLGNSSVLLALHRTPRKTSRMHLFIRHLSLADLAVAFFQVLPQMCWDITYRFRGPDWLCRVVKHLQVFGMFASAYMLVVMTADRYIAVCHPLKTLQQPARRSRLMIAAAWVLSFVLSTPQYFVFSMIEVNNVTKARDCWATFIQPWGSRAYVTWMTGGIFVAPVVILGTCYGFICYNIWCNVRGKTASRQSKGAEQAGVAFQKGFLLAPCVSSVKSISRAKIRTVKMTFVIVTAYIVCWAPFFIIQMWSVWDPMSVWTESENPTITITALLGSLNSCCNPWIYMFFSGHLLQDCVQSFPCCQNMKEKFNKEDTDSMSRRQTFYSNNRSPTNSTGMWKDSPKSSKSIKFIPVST

| Structure (SMILES) | Ki |
| --- | --- |
| O=C(c1ccc2ccccc2c1)N1CCC2(CC1)C(=O)Nc1ccc(Br)cc12 [Example 33, 5-Bromo-1′-(2-naphthoyl)spiro[indole-3,4′-piperidin]-2(1H)-one] | 110 nM |
| COc1ccc2c(c1)C1(CCN(C(=O)c3ccc4ccccc4c3)CC1)OC2=O [Example 1, 6-Methoxy-1′-(2-naphthoyl)-3H-spiro[2-benzofuran-1,4′-piperidin]-3-one] | 8.32 nM |
| O=C(c1ccc2ccccc2c1)N1CCC2(C=Cc3ccccc32)CC1 [Example 36, 1′-(2-Naphthoyl)spiro[indene-1,4′-piperidine]] | 89.1 nM |
| O=C1OC2(CCN(C(=O)c3ccc(Cl)c(Cl)c3)CC2)c2cc(OCCO)ccc21 [Example 12, 1′-(3,4-Dichlorobenzoyl)-6-(2-hydroxyethoxy)-3H-spiro[2-benzofuran-1,4′-piperidin]-3-one] | 21.9 nM |
| CC(C)(C)c1ccc(C(=O)N2CCC3(CC2)OCc2ccccc23)cc1 [Example 25, 1′-(4-tert-Butylbenzoyl)-3H-spiro[2-benzofuran-1,4′-piperidine]] | 63.1 nM |
| COc1cc(C(=O)N2CCC3(CC2)OCc2ccccc23)c2[nH]ccc2c1 [Example 27, 1′-[(5-Methoxy-1H-indol-7-yl)carbonyl]-3H-spiro[2-benzofuran-1,4′-piperidine]] | 50.1 nM |
| O=C(c1ccc(Cl)c(Cl)c1)N1CCC2(CCc3ccccc32)CC1 [Example 42, 1′-(3,4-Dichlorobenzoyl)-2,3-dihydrospiro[indene-1,4′-piperidine]] | 112 nM |

More lines, now with the values ahead:

| Ki | Structure (SMILES) |
| --- | --- |
| 28.8 nM | COc1ccc2c(c1)C1(CCN(C(=O)c3ccc(Cl)c(Cl)c3)CC1)OC2=O [Example 7, 1′-(3,4-Dichlorobenzoyl)-6-methoxy-3H-spiro[2-benzofuran-1,4′-piperidin]-3-one] |
| 19.1 nM | O=C1OC2(CCN(C(=O)c3ccc(Cl)c(Cl)c3)CC2)c2ccccc21 [Example 6, 1′-(3,4-Dichlorobenzoyl)-3H-spiro[2-benzofuran-1,4′-piperidin]-3-one] |
| 47.9 nM | COc1ccc2c(c1)C(=O)OC21CCN(C(=O)c2ccc(Cl)c(Cl)c2)CC1 [Example 9, 1′-(3,4-Dichlorobenzoyl)-5-methoxy-3H-spiro[2-benzofuran-1,4′-piperidin]-3-one] |
| 29.5 nM | O=C1OC2(CCN(C(=O)c3ccc(Cl)c(Cl)c3)CC2)c2ccc(F)cc21 [Example 11, 1′-(3,4-Dichlorobenzoyl)-5-fluoro-3H-spiro[2-benzofuran-1,4′-piperidin]-3-one] |

Reference: patent publication US20080153862A1, “SPIROPIPERIDINE DERIVATIVES” (priority 2006, published 2008)
